EPA's ToxRefDB 2

Legend:
mouse [1] = conditions: Subchronic oral toxicity in rodents, b6c3f1, Gavage/Intubation, dose end: 14 week, group: systemic
rat [2] = conditions: Subchronic oral toxicity in rodents, fischer, Gavage/Intubation, dose end: 14 week, group: systemic
rat [3] = conditions: Combined chronic toxicity/carcinogenicity, fischer, Oral, Gavage/Intubation, dose end: 104 week, group: systemic
mouse [4] = conditions: Combined chronic toxicity/carcinogenicity, b6c3f1, Oral, Gavage/Intubation, dose end: 104 week, group: systemic
dog [5] = conditions: Chronic toxicity, beagle, Oral, Feed, dose end: 52 week, group: systemic
rat [6] = conditions: Multigenerational reproductive toxicity study, sprague dawley, Oral, Feed, dose end: 2 generation
mouse [7] = conditions: Carcinogenicity; cd1; Oral; Feed; dose end: 80 week; group: systemic; systemic / in life observation / body weight / body weight + systemic / in life observation / body weight / body weight gain + systemic / …
rat [8] = conditions: Combined chronic toxicity/carcinogenicity, sprague dawley, Oral, Feed, dose end: 2 year, group: systemic
mouse [9] = conditions: Subchronic oral toxicity in rodents, cd1, Feed, dose end: 90 day, group: systemic
rat [10] = conditions: Subchronic oral toxicity in rodents, sprague dawley, Feed, dose end: 90 day, group: systemic
rat [11] = conditions: Multigenerational reproductive toxicity study, wistar, Oral, Feed, dose end: 2 generation
rabbit = conditions: Prenatal developmental toxicity study, new zealand white, Oral, Gavage/Intubation, dose end: 19 GD
mouse [12] = conditions: Combined chronic toxicity/carcinogenicity, cd1, Oral, Feed, dose end: 104 week, group: systemic
rat [13] = conditions: Prenatal developmental toxicity study, sprague dawley, Oral, Gavage/Intubation, dose end: 15 GD
mouse [14] = conditions: Carcinogenicity, cd1, Oral, Feed, dose end: 104 week, group: systemic
dog [15] = conditions: Chronic toxicity; beagle; Oral; Feed; dose end: 6 month; group: systemic; systemic / clinical chemistry / cholesterol / cholesterol + systemic / organ weight / liver / absolute + systemic / organ weight / liver / …
[16] = systemic / pathology microscopic / adrenal gland / atrophy + systemic / pathology microscopic / adrenal gland / vacuolization + systemic / …
[17] = systemic / in life observation / body weight / body weight + systemic / in life observation / body weight / body weight gain
[18] = systemic / in life observation / body weight / body weight + systemic / in life observation / body weight / body weight gain + systemic / …
[19] = systemic / pathology microscopic / liver / basophilic focus
[20] = systemic / pathology microscopic / pancreas / atrophy + systemic / pathology microscopic / pancreas / hyperplasia + systemic / pathology …
[21] = systemic / pathology microscopic / salivary glands / cytoplasmic alteration
[22] = systemic / pathology microscopic / salivary glands / cytoplasmic alteration + systemic / pathology microscopic / liver / carcinoma
[23] = systemic / in life observation / food consumption / food consumption
[24] = group: offspring, systemic / in life observation / body weight / offspring (pup) weight
[25] = group: offspring, systemic / in life observation / body weight / offspring (pup) weight + systemic / in life observation / body weight / offspring (pup) …
[26] = group: parental, systemic / in life observation / body weight / body weight + systemic / in life observation / body weight / body weight gain + systemic / in…
[27] = systemic / organ weight / kidney / absolute + systemic / organ weight / kidney / relative to brain weight
[28] = systemic / organ weight / kidney / absolute + systemic / organ weight / kidney / relative to brain weight + systemic / pathology microscopic…
[29] = systemic / in life observation / body weight / body weight + systemic / in life observation / body weight / body weight gain + systemic / in…
[30] = group: offspring, systemic / in life observation / body weight / offspring (pup) weight gain + systemic / organ weight / liver / relative to body weight
[31] = group: offspring, systemic / in life observation / body weight / offspring (pup) weight gain + systemic / organ weight / liver / relative to body weight + …
[32] = group: parental, systemic / organ weight / kidney / absolute + systemic / organ weight / kidney / relative to body weight + systemic / organ weight / liver…
[33] = group: reproductive, reproductive / reproductive performance / precoital interval / precoital interval
[34] = group: developmental, developmental / developmental malformation / bone / incomplete ossification + developmental / developmental malformation / bone / …
[35] = group: developmental, developmental / developmental malformation / bone / unossified
[36] = group: maternal, reproductive / reproductive performance / aborted / aborted + systemic / in life observation / body weight / body weight gain
[37] = systemic / organ weight / liver / absolute + systemic / pathology gross / spleen / enlarged + systemic / pathology microscopic / kidney / …
[38] = group: developmental, developmental / developmental malformation / bone / bipartite ossification + developmental / developmental malformation / bone / short …
[39] = group: maternal, systemic / in life observation / body weight / body weight gain
[40] = group: maternal, systemic / in life observation / body weight / body weight gain + systemic / in life observation / food consumption / food consumption
[41] = systemic / organ weight / liver / absolute + systemic / organ weight / liver / relative to body weight + systemic / pathology gross / spleen…
[42] = systemic / pathology microscopic / liver / [other]

C[C@]12CCC(=O)C=C1CC[C@@H]1[C@@H]2CC[C@]2(C)C(=O)CC[C@@H]12 [4-Androstene-3,17-dione] was tested, and the LEL (mouse [1]; systemic / pathology microscopic / adrenal gland / atrophy) was 5 mg/kg/day, the NEL (mouse [1]; systemic / pathology microscopic / adrenal gland / atrophy + systemic / pathology microscopic / adrenal gland / vacuolization) was 1 mg/kg/day and the LOAEL (mouse [1]; [16]) was greater than 50 mg/kg/day. For the same compound, the NOAEL (mouse [1]; [16]) was no less than 50 mg/kg/day, the LEL (rat [2]; [17]) was 1 mg/kg/day and the NEL (rat [2]; [17]) was less than 1 mg/kg/day. It also gave an LOAEL (rat [2]; [18]) greater than 50 mg/kg/day, an NOAEL (rat [2]; [18]) of no less than 50 mg/kg/day and an LEL (rat [3]; [19]) of 10 mg/kg/day. For the same compound, the NEL (rat [3]; [19]) was less than 10 mg/kg/day, the LOAEL (rat [3]; [20]) was 50 mg/kg/day and the NOAEL (rat [3]; [20]) was 20 mg/kg/day. It also gave an LOAEL (mouse [4]; [21]) of 2 mg/kg/day, an NOAEL (mouse [4]; [21]) of less than 2 mg/kg/day and an LEL (mouse [4]; [22]) of 2 mg/kg/day. It also gave an NEL (mouse [4]; [22]) of less than 2 mg/kg/day.
In the case of CCCOC(=O)c1ccc(C(=O)OCCC)nc1 [Dipropyl pyridine-2,5-dicarboxylate], the LOAEL (dog [5]; systemic / in life observation / body weight / body weight gain) is reported as 148 mg/kg/day, the NOAEL (dog [5]; systemic / in life observation / body weight / body weight gain + systemic / in life observation / body weight / body weight + systemic / in…) is reported as 34.3 mg/kg/day and the LEL (dog [5]; [23]) is reported as 8.12 mg/kg/day. For the same compound, the NEL (dog [5]; [23]) was less than 8.12 mg/kg/day, the LEL (rat [6]; [24]) was 289 mg/kg/day and the LOAEL (rat [6]; [24]) was 289 mg/kg/day. The NEL (rat [6]; [25]) was 72.9 mg/kg/day, the NOAEL (rat [6]; [25]) was 72.9 mg/kg/day and the LOAEL (rat [6]; [26]) was 1020 mg/kg/day. It also gave an NEL (rat [6]; [26]) of 66 mg/kg/day, an NOAEL (rat [6]; [26]) of 255 mg/kg/day and an LEL (rat [6]; group: parental, systemic / in life observation / food consumption / food consumption) of 255 mg/kg/day. The LEL (mouse [7]) was 494 mg/kg/day, the LOAEL (mouse [7]) was 494 mg/kg/day and the NEL (mouse [7]) was 124 mg/kg/day. The NOAEL (mouse [7]) was 124 mg/kg/day, the LEL (rat [8]; [27]) was 250 mg/kg/day and the LOAEL (rat [8]; [27]) was 250 mg/kg/day. For the same compound, the NEL (rat [8]; [28]) was 65 mg/kg/day, the NOAEL (rat [8]; [28]) was 65 mg/kg/day and the LOAEL (mouse [9]; [29]) was 2000 mg/kg/day. For the same compound, the NOAEL (mouse [9]; [29]) was 1000 mg/kg/day, the LEL (mouse [9]; systemic / organ weight / kidney / absolute + systemic / organ weight / kidney / relative to body weight) was 500 mg/kg/day and the NEL (mouse [9]; systemic / organ weight / kidney / relative to body weight + systemic / organ weight / liver / relative to body weight) was 250 mg/kg/day. The LEL (rat [10]; systemic / hematology / hematocrit (hct) / hematocrit (hct)) was 500 mg/kg/day, the LOAEL (rat [10]; [18]) was 1000 mg/kg/day and the NEL (rat [10]; [18]) was 250 mg/kg/day. It also gave an NOAEL (rat [10]; [18]) of 500 mg/kg/day.
Compound CNc1cnn(-c2cccc(C(F)(F)F)c2)c(=O)c1Cl [Norflurazon] has an LEL (rat [11]; [30]) of 67.8 mg/kg/day, an LOAEL (rat [11]; [30]) of 67.8 mg/kg/day and an NEL (rat [11]; [31]) of 13.2 mg/kg/day. For the same compound, the NOAEL (rat [11]; [31]) was 13.2 mg/kg/day, the LEL (rat [11]; [32]) was 50.8 mg/kg/day and the LOAEL (rat [11]; [32]) was 50.8 mg/kg/day. It also gave an NEL (rat [11]; [32]) of 10.2 mg/kg/day, an NOAEL (rat [11]; [32]) of 10.2 mg/kg/day and an LEL (rat [11]; [33]) of 102 mg/kg/day. For the same compound, the LOAEL (rat [11]; [33]) was 102 mg/kg/day, the NEL (rat [11]; [33]) was 50.8 mg/kg/day and the NOAEL (rat [11]; [33]) was 50.8 mg/kg/day. For the same compound, the LOAEL (rabbit; [34]) was 30 mg/kg/day, the NOAEL (rabbit; [34]) was 10 mg/kg/day and the LEL (rabbit; [35]) was 10 mg/kg/day. The NEL (rabbit; [35]) was less than 10 mg/kg/day, the LEL (rabbit; [36]) was 60 mg/kg/day and the LOAEL (rabbit; [36]) was 60 mg/kg/day. The NEL (rabbit; [36]) was 30 mg/kg/day, the NOAEL (rabbit; [36]) was 30 mg/kg/day and the NEL (mouse [12]; systemic / organ weight / liver / absolute + systemic / organ weight / liver / relative to body weight + systemic / pathology gross / liver…) was 12.8 mg/kg/day. For the same compound, the LEL (mouse [12]; [37]) was 58.7 mg/kg/day, the LOAEL (mouse [12]; [37]) was 58.7 mg/kg/day and the NOAEL (mouse [12]; [37]) was 12.8 mg/kg/day. The LEL (rat [13]; [38]) was 400 mg/kg/day, the LOAEL (rat [13]; [38]) was greater than 400 mg/kg/day and the NEL (rat [13]; [38]) was 200 mg/kg/day. The NOAEL (rat [13]; [38]) was no less than 400 mg/kg/day, the LOAEL (rat [13]; [39]) was 100 mg/kg/day and the NOAEL (rat [13]; [39]) was less than 100 mg/kg/day. For the same compound, the LEL (rat [13]; [40]) was 100 mg/kg/day, the NEL (rat [13]; [40]) was less than 100 mg/kg/day and the LOAEL (mouse [14]; [41]) was 58.7 mg/kg/day. For the same compound, the NOAEL (mouse [14]; [41]) was 12.8 mg/kg/day, the LEL (mouse [14]; [42]) was 12.8 mg/kg/day and the NEL (mouse [14]; [42]) was less than 12.8 mg/kg/day. For the same compound, the LEL (dog [15]) was 4.77 mg/kg/day, the LOAEL (dog [15]) was 4.77 mg/kg/day and the NEL (dog [15]) was 1.58 mg/kg/day. For the same compound, the NOAEL (dog [15]) was 1.58 mg/kg/day.
